# From patent US6498154B1, “Cyclic regimens using quinazolinone and benzoxazine derivatives” (Wyeth, priority 1999, dated 2002)
# pEC50, pIC50: −log10 of the molar value. Values joined by “and” are separate entries in the source; they are usually repeats but may differ in a detail not shown here. Equal values may be shown once.
# Tested on: rat uterine decidualization
# Experiment: Rat decidualization assay
# Type: in vivo
# Conditions: average of dose-response curves, rat decidualization, s.c.
# Protocol: 1. Rat decidualization assay
# b. Animals (RACUC protocol #5002)
# The animals are treated once daily for seven days.
# Uteri are removed and trimmed of fat.
# Body weight: Mean total animal body weight (default-kg)
# Decidual response: [(D-C)/C]×100%
row,Estimated average EC50,SMILES
1,"0.10 mg/kg, s.c.","C#C[C@]1(O)CC[C@H]2[C@@H]3CCC4=CC(=O)CC[C@@H]4[C@H]3C(=C)C[C@@]21CC [3-Ketodesogestrel, 3-ketodesogestrel]"
2,"0.10 mg/kg, s.c.","C#C[C@]1(O)CC[C@H]2[C@@H]3CCC4=CC(=O)CC[C@@H]4[C@H]3CC[C@@]21CC [Levonorgestrel, levonorgestrel]"

# Same assay, conditions: decrease in EC50 progesterone (5.6 mg/kg) induced decidual response, rat, s.c.
row,Estimated IC50,SMILES
1,"0.21 mg/kg, s.c. and 0.14 mg/kg, s.c.",CC#C[C@]1(O)CC[C@H]2[C@@H]3CCC4=CC(=O)CCC4=C3[C@@H](c3ccc(N(C)C)cc3)C[C@@]21C [RU486]

# Same assay, conditions: ovariectomized female Sprague-Dawley rats, once daily for seven days, s.c.; individual studies
row,SMILES,Estimated EC50 for uterine wet weight
1,"CC(=O)[C@H]1CC[C@H]2[C@@H]3CCC4=CC(=O)CC[C@]4(C)[C@H]3CC[C@]12C [Progesterone, progesterone]","5.50 mg/kg, s.c."
2,"C#C[C@]1(O)CC[C@H]2[C@@H]3CCC4=CC(=O)CC[C@@H]4[C@H]3C(=C)C[C@@]21CC [3-Ketodesogestrel, 3-ketodesogestrel]","0.10 mg/kg, s.c. and 0.06 mg/kg, s.c. and 0.11 mg/kg, s.c."
3,"C#C[C@]1(O)CC[C@H]2[C@@H]3CCC4=CC(=O)CC[C@@H]4[C@H]3CC[C@@]21CC [Levonorgestrel, levonorgestrel]","0.08 mg/kg, s.c. and 0.12 mg/kg, s.c. and 0.09 mg/kg, s.c. (2×)"
4,"CC(=O)O[C@]1(C(C)=O)CC[C@H]2[C@@H]3C[C@H](C)C4=CC(=O)CC[C@]4(C)[C@H]3CC[C@@]21C [MPA, medroxyprogesterone acetate]","0.42 mg/kg, s.c. and 0.39 mg/kg, s.c. (2×)"

# Tested on: not given
# Experiment: not given
# Conditions: not given
row,melting point,SMILES
1,173 to 175 °C,"CC1Nc2ccc(-c3ccc(F)c(Cl)c3)cc2C(C)(C)O1 (stereo not shown) [Example 29, 6(3-Chloro-4-fluorophenyl)-2,4,4-trimethyl-1,4dihydro-2H-3,1-benzoxazine]"
2,163 to 164 °C,"CC1Nc2ccc(-c3cc(F)cc(C#N)c3)cc2C(C)(C)O1 (stereo not shown) [Example 14, 3-Fluoro-5-(2,4,4-trimethyl-1,4-dihydro-2H-3,1-benzoxazin-6-yl)benzonitrile]"
3,240 to 242 °C (dec.),"CC1(C)CC(=S)Nc2ccc(-c3cc(F)cc(C#N)c3)cc21 [Example 46, 3-(4,4-Dimethyl-2-thioxo-1,2,3,4-tetrahydroquinolin-6-yl)5-fluorobenzonitrile]"
4,175 to 176 °C,"CC1Nc2ccc(-c3csc(C#N)c3)cc2C(C)(C)O1 (stereo not shown) [Example 15, 4-(2,4,4-Trimethyl-1,4-dihydro-2H-3,1-benzoxazin-6-yl)thiophene-2-carbonitrile]"
5,201 to 202 °C,"CC1Nc2ccc(-c3ccc(C#N)[nH]3)cc2C(C)(C)O1 (stereo not shown) [Example 20, 5-(2,4,4-Trimethyl-1,4-dihydro-2H-3,1-benzoxazin-6-yl)1H-pyrrole-2-carbonitrile]"
6,128 to 129 °C,"C[C@@H]1Nc2ccc(-c3cc(F)cc(C#N)c3)cc2[C@](C)(c2ccccc2)O1 [Example 17, 3-[(2R,4S)-2,4-Dimethyl-4-phenyl-1,4-dihydro-2H-3,1-benzoxazin-6-yl]-5-fluorobenzonitrile]"
7,125 to 127 °C,"CC1(C2CC2)NC(=O)Nc2ccc(-c3cccc(Cl)c3)cc21 (stereo not shown) [drawing 34, R = H, 6-(3-Chlorophenyl)-4-cyclopropyl-4-methyl-3,4-dihydro-1H-quinazolin-2-one]"
8,108 to 109 °C,"CC1(C)OC(C(F)(F)F)Nc2ccc(-c3cccc(Cl)c3)cc21 (stereo not shown) [Example 39, 6-(3-Chlorophenyl)-4,4-dimethyl-2-(trifluoromethyl)-1,4-dihydro-2H-3,1-benzoxazine]"
9,102 to 103 °C,"CC1(C)OC(C(F)(F)F)Nc2ccc(-c3cc(F)cc(C#N)c3)cc21 (stereo not shown) [Example 32, 3-[4,4-Dimethyl-2-(trifluoromethyl)-1,4-dihydro-2H-3,1-benzoxazin-6-yl]-5-fluorobenzonitrile]"
10,116 to 118 °C,"CC1Nc2ccc(-c3coc(C#N)c3)cc2C(C)(C)O1 (stereo not shown) [Example 31, 4-(2,4,4-Trimethyl-1,4-dihydro-2H-3,1-benzoxazin-6-yl)-2-furonitrile]"
11,211 to 215 °C,"CC1(C)CC(=O)Nc2ccc(-c3cccc(Cl)c3)cc21 [6-(3-Chlorophenyl)-4,4-dimethyl-3,4-dihydro-1H-quinolin-2-one]"
12,145 to 146 °C,"Cc1cc(C#N)sc1-c1ccc2c(c1)C(C)(C)OC(C)N2 (stereo not shown) [Example 16, 4-Methyl-5(2,4,4-trimethyl-1,4-dihydro-2H-3,1-benzoxazin-6-yl)thiophene-2-carbonitrile]"
13,144 to 146 °C,"CC1Nc2ccc(-c3cccc(Cl)c3)cc2C(C)(C)O1 (stereo not shown) [Example 28, 6-(3-Chlorophenyl)-2,4,4-trimethyl-1,4-dihydro-2H-3,1-benzoxazine]"
14,111 to 112 °C,"CC1Nc2ccc(-c3csc(C#N)c3)cc2C2(CCCCC2)O1 (stereo not shown) [Example 26, 4-(2-Methylspiro[2H-3,1-benzoxazine-4,1′-cyclohexane]-6-yl)2-thiophenecarbonitrile]"
15,139 to 140 °C,"CC1Nc2ccc(-c3cccc(F)c3)cc2C(C)(C)O1 (stereo not shown) [Example 27, 6-(3-Fluorophenyl)-2,4,4-trimethyl-1,4-dihydro-2H-3,1-benzoxazine]"
16,193 to 194 °C,"CN1C(=O)Nc2ccc(-c3cccc(Cl)c3)cc2C1(C)C1CC1 (stereo not shown) [drawing 34, R = Me, 6-(3-Chlorophenyl)-4-cyclopropyl-3,4-dimethyl3,4dihydro-1H-guinazolin-2-one]"
17,190 to 192 °C,"CC1(C)CC(=O)Nc2ccc(-c3cccc(C#N)c3)cc21 [Example 42, 3-(4,4-Dimethyl-2-oxo-1,2,3,4-tetrahydroquinolin-6-yl)benzonitrile]"
18,190 to 192 °C,"CC1(C)CC(=O)Nc2ccc(-c3cccc(F)c3)cc21 [Example 40, 6(3-Fluorophenyl)-4,4-dimethyl-3,4-dihydroquinolin-2(1H)-one]"
19,184 to 186 °C,"CC1Nc2ccc(-c3ccc(F)c(C#N)c3)cc2C(C)(C)O1 (stereo not shown) [Example 30, 2-Fluoro-5-(2,4,4-trimethyl-1,4-dihydro-2H-3,1-benzoxazin-6-yl)benzonitrile]"
20,249 to 250 °C,"CC1(C)CC(=O)Nc2ccc(-c3cc(F)cc(C#N)c3)cc21 [Example 41, 3-(4,4-Dimethyl-2-oxo-1,2,3,4-tetrahydroquinolin-6-yl)-5-fluorobenzonitrile]"
21,188 to 189 °C,"CC1OC(C)(C)Nc2ccc(-c3cccc([N+](=O)[O-])c3)cc21 (stereo not shown) [Compound 3, 6-(3-Nitro-phenyl)-2,2,4,-trimethyl-1,4dihydro-2H-benzo[d][1,3]oxazine]"
22,172 to 173 °C,"CC1Nc2ccc(-c3ccc(C#N)s3)cc2C(C)(C)O1 (stereo not shown) [Example 13, 5-(2,4,4-Trimethyl-1,4-dihydro-2H-3,1-benzoxazin-6-yl)thiophene-2-carbonitrile]"
23,97 to 98 °C,"Cc1cc(C#N)sc1-c1ccc2c(c1)C(C)(C)OC(C(F)(F)F)N2 (stereo not shown) [Example 38, 5-[4,4-Dimethyl-2-(trifluoromethyl)-1,4-dihydro-2H-3,1-benzoxazin-6yl]-4-methylthiophene-2-carbonitrile]"
24,209 to 211 °C,"CC1(C)CC(=S)Nc2ccc(-c3cccc(F)c3)cc21 [Example 44, 6-(3-Fluorophenyl)-4,4-dimethyl-3,4-dihydroquinoline-2(1H)-thione]"

row,SMILES,melting point
1,"CC1OC(C)(C)c2cc(-c3ccc(C#N)n3C(=O)OC(C)(C)C)ccc2N1C(=O)OCC1c2ccccc2-c2ccccc21 (stereo not shown) [Example 19, 9H-Fluoren-9-ylmethyl-6-[1-(tert-butoxycarbonyl)-5-cyano-1H-pyrrol-2-yl]-2,4,4-trimethyl-2H-3,1-benzoxazine-1(4H)-carboxylate]",135 to 136 °C

# Tested on: T47D cells
# Experiment: T47D cell proliferation assay (BrdU incorporation)
# Type: cell-based
# Conditions: half-maximal decrease in trimegestone induced BrdU incorporation, read-out: Estimated IC50
# Protocol: 3. T47D Cell Proliferation Assay
# The objective of this assay is the determination of progestational and antiprogestational potency by using a cell proliferation assay in T47D cells. A compound's effect on DNA synthesis in T47D cells is measured.
# DMEM:F12 (1:1) (GIBCO, BRL) supplemented with 10% (v/v) fetal bovine serum (not heat-inactivated), 10 U/ml penicillin, […] streptornycin, and 2 mM GlutaMax (GIBCO, BRL).
# Minimum Essential Medium (MEM) (#51200-038GIBCO, BRL) phenol red-free supplemented with 0.5% charcoal stripped fetal bovine serum, 100 U/ml penicillin, […] streptornycin, and 2 mM GlutaMax (GIBCO, BRL).
# Stock T47 D cells are maintained in growth medium. For BrdU incorporation assay, cells are plated in 96-well plates (Falcon, Becton Dickinson Labware) at 10,000 cells/well in growth medium. […]
# At the end of BrdU labeling, the medium is removed and BrdU incorporation is measured using a cell proliferation ELISA kit (#RPN 250, Amersham Life Science) according to manufacturer's instructions. […] Then 25 μl of 1 M sulfuric acid is added to each well to stop color reaction and optical density is read in a plate reader at 450 nm within 5 min.
# Square root-transformed data are used for analysis of variance and nonlinear dose response curve fitting for both agonist and antagonist modes. […] EC50 or IC50 values are calculated from the retransformed values. […]
row,pIC50,SMILES
1,10.80 and 10.74,CC#C[C@]1(O)CC[C@H]2[C@@H]3CCC4=CC(=O)CCC4=C3[C@@H](c3ccc(N(C)C)cc3)C[C@@]21C [RU486]

# Same assay, conditions: half-maximal increase in BrdU incorporation, individual studies, read-out: Estimated EC50
row,pEC50,SMILES
1,10.77 and 10.85 and 10.72,"C[C@H](O)C(=O)[C@@]1(C)CC[C@H]2[C@@H]3CCC4=CC(=O)CCC4=C3CC[C@@]21C [Trimegestone, trimegestone]"
